Test results taken from patent US7049094B2, “Methods for identifying modulators of N-type ion channel inactivation” (Wyeth, priority 1999, dated 2006).

Experiments:
hKv1.4 channels = target: T1, hKv1.4 channels (Homo sapiens, UniProt P22459); test: Elimination of N-type inactivation of hKv1.4 channels (CHO cells); assay type: cell-based; conditions: glutathione keeps channels in reduced (inactivating) state
T1 construct: expressed in transfected cells; host or cells: CHO cells
Procedure: Compounds active in the yeast assay were examined for their ability to disrupt N-type Kv channel inactivation in CHO cells transfected with hKv1.1 alone, hKv1.1 plus hKvβ1, or hKv1.4, and in Xenopus oocytes injected with the corresponding mRNA's. […] This “disinactivating” effect was potent and dose dependent, with an IC50 ranging from 0.3 μM to […] in CHO cells and a 3–5 fold higher IC50 of 0.9 μM in oocytes. […] In addition to the disinactivating effect of these compounds, a parallel dose-dependent increase in peak current occurred simultaneously with the loss of inactivation. This increase in peak current is probably at least partially due to the removal of inactivation, which uncovers the “true” peak current of the channels in the cell, although other mechanisms such as a stabilization of the open state of the channel may also be occurring. […] At 100 μM, however, Compound “A” blocked approximately 37% of the hKv1.1 current in CHO cells, thus high concentrations of some of these compounds are able to block Kv1.1 channels.
The mechanism of action of these Kv channel modulators (referred to herein as “disinactivators”) was further explored first by altering the voltage protocol so that single voltage steps to 50 mV were applied once every 20 sec (FIG. 8). […]

PTZ-induced seizures = test: Protection against pentylenetetrazol-induced seizures; assay type: in vivo; conditions: Mus musculus; mice, I.P., 30 min before PTZ 85 mg/kg s.c.; read-out: estimated ED50, protection against PTZ-induced seizures
Procedure: FIG. 8. Protection against pentelenetetrazol-induced seizures in the mouse. Adult male mice were treated with valproic acid (FIG. 8a), Compound A (FIG. 8b), and Compound B (FIG. 8c) at doses from 30–178 mg/kg i.p. (n=8/dose). Thirty minutes later, these animals were challenged with pentelenetetrazol (85 mg/kg, SC) and observed for onset of seizures during a 30 minute test period. The number of animals protected from seizures was plotted versus dose of test compound and ED50s were estimated from this dose-response data.
The activities of Kv channel modulators were examined in several in vitro and in vivo seizure models. Field potential recordings were performed in the CA1 region of rat hippocampal slices treated with 10 μM bicuculline to induce multiple population spikes (Albus, H. and R. Williamson, Epilepsia (1998) 39(2):124–139). […] To test this hypothesis directly, the disinactivators were examined for their ability to protect mice from pentylenetetrazol-induced seizures. Mice were pretreated with Compound “D” or Compound “E” (30–300 mg/kg i.p.), valproic acid (156 mg/kg i.p.) or saline. Thirty minutes later, pentylenetetrazol (PTZ; 85 mg/kg, s.c.) was administered and the mice were monitored for development of spontaneous, recurrent seizures (a seizure was defined as loss of righting reflex; see Frey, H.-H. and I. Bartels, Epilepsy Res. (1997) 27:151–164). […]

T1 sequence (P22459 whole entry): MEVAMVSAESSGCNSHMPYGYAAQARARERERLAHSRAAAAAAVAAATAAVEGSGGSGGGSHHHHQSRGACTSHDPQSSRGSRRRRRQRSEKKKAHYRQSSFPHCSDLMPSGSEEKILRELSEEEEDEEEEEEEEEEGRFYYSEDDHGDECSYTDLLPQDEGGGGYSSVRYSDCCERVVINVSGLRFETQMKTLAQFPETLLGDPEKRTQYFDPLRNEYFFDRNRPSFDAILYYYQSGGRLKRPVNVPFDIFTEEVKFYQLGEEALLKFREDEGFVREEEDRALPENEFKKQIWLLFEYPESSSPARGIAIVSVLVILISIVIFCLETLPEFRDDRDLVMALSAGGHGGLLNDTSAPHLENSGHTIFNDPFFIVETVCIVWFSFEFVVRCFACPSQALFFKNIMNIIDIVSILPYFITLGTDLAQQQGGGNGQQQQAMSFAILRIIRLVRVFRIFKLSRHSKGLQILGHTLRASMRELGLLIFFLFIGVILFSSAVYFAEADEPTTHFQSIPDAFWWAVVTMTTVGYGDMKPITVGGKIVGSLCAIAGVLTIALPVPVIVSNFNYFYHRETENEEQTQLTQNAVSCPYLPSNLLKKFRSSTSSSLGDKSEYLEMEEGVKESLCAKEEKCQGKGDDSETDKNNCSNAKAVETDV

Row | Structure (SMILES) | disinactivation of hKv1.4 with glutathione applied (hKv1.4 channels) | ED50 (PTZ-induced seizures) [mg/kg]
1 | OO [Compound H2O2, H2O2] | Glutathione was able to block the disinactivation | –
2 | CCCC(CCC)C(=O)O [valproic acid] | – | 141
